Article PMC11169864, “Application of cysteinyl prolyl ester for the synthesis of cyclic peptides containing an RGD sequence and their biological activity measurement” (Frontiers in Chemistry, 2024)
Non-standard residues stand in square brackets, D forms with d.

System: αvβ6 integrin
Assay: Integrin inhibition assay (ELISA): inhibition of αvβ6 integrin binding to LAP (TGF-β1)
Parameters: species or system human
Conditions: 1 µM peptide preincubated 1 h at room temperature with 10 nM integrin αvβ6, 1.0 mM Mn2+, plate coated with 10 nM LAP (TGF-β1), absorbance at 490 nm, mean ± standard error, N = 3, numbers only in Figure 8, text gives comparisons in words
Description: Among the RGD-binding integrins, we selected αvβ6 integrin for measurement of the inhibition activity of the cyclic peptides. The αvβ6 integrin is reported to recognize the sequence beyond the RGD motif, RGDLXXL ([Dong et al., 2014]). Therefore, the inhibition activity of the cyclic peptides is expected to vary depending on the configuration and the modification at the CPC moiety. In addition, the inhibitor of the αvβ6 integrin is still under development ([John et al., 2020]), while an efficient inhibitor, cilengitide, exists for the αvβ3 and αvβ5 integrins ([Stupp and Ruegg, 2007]). […] The inhibitory activity of the commonly used RGD tripeptide was also measured as a control. […]
The integrin inhibition assay was performed as follows. […] The bound αvβ6 integrin was detected by the biotinylated anti-Velcro polyclonal antibody and horseradish peroxidase-conjugated streptavidin. […] The bound antibody was detected by horseradish peroxidase-conjugated streptavidin (0.53 μg/mL), followed by colorimetrically measuring the amount of bound αvβ6 integrin using o-phenylenediamine (0.4 mg/mL; FUJIFILM Wako) and H2O2 (0.006%) in a 25 mM citric acid/50 mM Na2HPO4 buffer. The colorimetric reaction was stopped with 100 μL of 2.5 M H2SO4, and the absorbance of the chromogenic substrate was measured at 490 nm using a microplate reader (Molecular Devices EMax). […]

Row | Substance | Inhibitory activity for binding of the αvβ6 integrin with LAP (TGF-β1)
1 | cyclo(CRGDC[dP]) (cysteine pairing not given here) [3a] | stronger than 3c and 3d
2 | cyclo([dC]RGDC[dP]) (cysteine pairing not given here) [3b] | stronger than 3c and 3d
